Results taken from patent US20110039700A1, “Method for Improved Utilization of the Production Potential of Transgenic Plants Introduction” (priority 2008, published 2011).

What was measured:
Format in all cases: in vivo
Spodoptera frugiperda [1] = assay: Foliar application Spodoptera frugiperda/cotton; conditions: 72 h, read-out: Mortality in % after 3^d
Method: Individually potted transgenic cotton plants with Lepidoptera resistance and herbicide resistance (Line DP444 BG/RR) are treated with the desired product against the fall army worm (Spodoptera frugiperda).
(§1) After the desired period of time, the mortality in % is determined. Here 100% means that all caterpillars have been killed; 0% means that none of the caterpillars have been killed.

Spodoptera exigua = assay: Foliar application Spodoptera exigua/maize; conditions: 96 h, read-out: Mortality in % after 4^d
Method: Pots containing in each case 5 transgenic maize plants with Lepidoptera, Coleoptera and/or herbicide resistance are treated against the beet army worm (Spodoptera exigua) in 2 replications.
as §1

Spodoptera frugiperda [2] = assay: Drench application Spodoptera frugiperda/maize; conditions: soil, 96 h, read-out: Mortality in % after 4^d
Method: Pots containing in each case 5 transgenic maize plants with Lepidoptera, Coleoptera and/or herbicide resistance are treated by drenching against the fall army worm (Spodoptera frugiperda) in 2 replications.
as §1

For `CCC(C)(C)C(=O)OC1=C(c2ccc(Cl)cc2Cl)C(=O)OC12CCCCC2` [spirodiclofen], the mortality at 500 ppm (Spodoptera frugiperda [1]) was 0%.
For `Cc1cc(C)c(C2=C(OC(=O)CC(C)(C)C)C3(CCCC3)OC2=O)c(C)c1` [spiromesifen], the mortality at 100 ppm (Spodoptera exigua) was 0% and the mortality at 100 ppm (Spodoptera frugiperda [2]) was 10%.
